Source: ChEMBL document CHEMBL5543103, “Toward a Template for Synthetic Actin-Targeting Macrolide Analogues That Inhibit Cancer Cell Invasiveness” (J Med Chem, 2024)
The source made the active and inactive calls. No cut-off for these calls is given here.

Assays:
L1210 = experiment: Cytotoxicity against mouse L1210 cells; assay type: functional, cell-based
Oryctolagus cuniculus = species: Oryctolagus cuniculus; experiment: (§1) Inhibition of rabbit skeletal muscle G-actin polymerization at 0.5 uM preincubated for 50 sec followed by ATP addition and measured for 600 sec by fluorescence spectrophotometer method relative to control; conditions: time 650.0 sec
Homo sapiens = species: Homo sapiens; experiment: Induction of F-actin depolymerization (unknown origin) at 10 uM measured for 900 sec in presence of ATP by fluorescence spectrophotometer method relative to MycB
Cell membrane [1] = experiment: Disruption of membrane projections in human SK-OV-3 cells at 1 uM; assay type: cell membranes
[2] = Partition coefficient, logP of compound; assay type: physicochemical; conditions: octanol/water
A549 [3] = experiment: Inhibition of cell invasion in human A549 cells assessed as decrease in wound density at 10 uM after 50 hrs by IncuCyte live-cell imaging analysis; assay type: functional, cell-based
Cell membrane [4] = experiment: Disruption of membrane in human SK-OV-3 cells assessed as F-actin aggregates formation at 1 uM; assay type: cell membranes
Cell membrane [5] = experiment: Disruption of membrane in human SKOV3 cells assessed as F-actin aggregates formation at 0.1 uM; assay type: cell membranes; conditions: SK-OV-3
Cell membrane [6] = experiment: Disruption of membrane projections in human SK-OV-3 cells at 0.1 uM; assay type: cell membranes
A549 [7] = experiment: Inhibition of cell invasion in human A549 cells assessed as decrease in wound density at 0.1 uM after 50 hrs by IncuCyte live-cell imaging analysis; assay type: functional, cell-based
B16 = experiment: Cytotoxicity against mouse B16 cells; assay type: functional, cell-based
[8] = as §1; design: species or system Oryctolagus cuniculus
KB = experiment: Cytotoxicity against human KB cells; assay type: functional, cell-based

Row | SMILES | inhibition (Oryctolagus cuniculus) [%] | Activity (Homo sapiens) [%] | further results
1 | CO[C@H]([C@H](C)/C=C/N(C)C=O)[C@@H](C)C(=O)CC[C@H](C)[C@H](C[C@@H]1OC(=O)C[C@@H](OC(N)=O)C[C@H](C)C[C@H](O)[C@H](C)[C@@H](OC)c2coc(n2)-c2coc(n2)-c2coc(n2)/C=C/C[C@H](OC)[C@H]1C)OC [KABIRAMIDE C] |  |  | IC50 (L1210): 10 nM
2 | CCC(=O)O[C@@H](C[C@H](OC)[C@@H](C)CC[C@@H](OC(=O)C(C)C)[C@H](C)[C@H](OC)[C@H](C)/C=C/N(C)C=O)C(C)C | 21 | 6 | 
3 | CCCN(C=O)/C=C/[C@@H](C)[C@@H](OC)[C@@H](C)[C@@H](CC[C@H](C)[C@H](C[C@H](OC(=O)CC)C(C)C)OC)OC(=O)C(C)C | 40 | 32 | 
4 | CCC(=O)O[C@@H](C[C@H](OC)[C@@H](C)CC[C@@H](OC(=O)C(C)C)[C@H](C)[C@H](OC)[C@H](C)/C=C/N1CCCC1=O)C(C)C | 29 | 26 | 
5 | CO[C@@H]1C/C=C/c2nc(co2)-c2nc(co2)-c2nc(co2)[C@@H](C)CC(=O)CCC[C@@H](O)CC(=O)O[C@H](C[C@@H](OC)[C@@H](C)CCC(=O)[C@H](C)[C@H](OC(C)=O)[C@H](C)/C=C/N(C)C=O)[C@H]1C |  |  | IC50 (L1210): 10 nM
6 | CCN(C=O)/C=C/[C@@H](C)[C@@H](OC)[C@@H](C)[C@@H](CC[C@H](C)[C@H](C[C@H](OC(=O)CCCN)C(C)C)OC)OC(=O)[C@H]1CCCO1 |  |  | Activity (Cell membrane [1]): Active; logP [2]: 4.55; inhibition (A549 [3]): Active; Activity (Cell membrane [4]): Active
7 | CCC(=O)O[C@@H](C[C@H](OC)[C@@H](C)CC[C@@H](OC(=O)C(C)C)[C@H](C)[C@H](OC)[C@H](C)/C=C/N1CCC1=O)C(C)C | 30 | 12 | 
8 | CCC(=O)O[C@@H](C[C@H](OC)[C@@H](C)CC[C@@H](OC(=O)C(C)C)[C@H](C)[C@H](OC)[C@H](C)/C=C/N(C=O)CC)C(C)C | 85 | 87 | 
9 | CCC(=O)O[C@@H](C[C@H](OC)[C@@H](C)CC[C@@H](OC(=O)C(C)C)[C@H](C)[C@H](OC)[C@H](C)/C=C/N(C)C=O)C1CCCCC1 | 52 | 45 | 
10 | CCC(=O)O[C@@H](C[C@H](OC)[C@@H](C)CC[C@@H](OC(=O)C1CCC1)[C@H](C)[C@H](OC)[C@H](C)/C=C/N(C)C=O)C(C)C | 67 | 52 | 
11 | CCC(=O)O[C@@H](C[C@H](OC)[C@@H](C)CC[C@@H](OC(=O)[C@H]1CCCO1)[C@H](C)[C@H](OC)[C@H](C)/C=C/N(C=O)CC)C(C)C | 63 | 77 | logP [2]: 5.67
12 | COC[C@@H](OC)C(=O)O[C@H](CC[C@H](C)[C@H](C[C@@H]1OC(=O)C[C@@H](O)C/C=C/C(=O)[C@H](C)[C@H](OC)c2coc(n2)-c2coc(n2)-c2coc(n2)/C=C/C[C@H](OC)[C@H]1C)OC)[C@H](C)[C@H](OC(C)=O)[C@H](C)/C=C/N(C)C=O |  |  | Activity (Cell membrane [5]): Active; Activity (Cell membrane [6]): Active; inhibition (A549 [7]): Active; IC50 (B16): 0.5 nM
13 | CCC(=O)O[C@H](CC)C[C@H](OC)[C@@H](C)CC[C@@H](OC(=O)CC)[C@H](C)[C@H](OC)[C@H](C)/C=C/N(C)C=O |  | 42 | IC50 [8]: 1000 nM
14 | CCC(=O)O[C@@H](C[C@H](OC)[C@@H](C)CC[C@@H](OC(=O)C(C)C)[C@H](C)C(OC)[C@H](C)/C=C/N(C=O)C1CC1)C(C)C (single isomer, unassigned) | 77 | 56 | 
15 | CC[C@@H](O)C[C@H](OC)[C@@H](C)CC[C@@H](OC(=O)C(C)C)[C@H](C)[C@H](OC)[C@H](C)/C=C/N(C)C=O | 30 | 0 | 
16 | CCC(=O)O[C@@H](C[C@H](OC)[C@@H](C)CC[C@@H](OC(=O)c1ccco1)[C@H](C)[C@H](OC)[C@H](C)/C=C/N(C)C=O)C(C)C | 43 | 41 | 
17 | CO[C@@H]([C@@H](C)[C@@H](CC[C@H](C)[C@H](C[C@H](OC(=O)CCCN)C(C)C)OC)OC(=O)[C@H]1CCCO1)[C@H](C)/C=C/N(C)C=O | 53 | 58 | logP [2]: 4.18; inhibition (A549 [3]): Active
18 | CCC(=O)O[C@@H](C[C@H](OC)[C@@H](C)CC[C@@H](OC(=O)[C@@H]1CCCO1)[C@H](C)[C@H](OC)[C@H](C)/C=C/N(C)C=O)C(C)C | 50 | 67 | 
19 | CO[C@@H](C[C@@H]1OC(=O)C[C@@H](O)C[C@H](O)C[C@H](O)[C@H](C)[C@@H](OC)c2coc(n2)-c2coc(n2)-c2coc(n2)/C=C/CC[C@H]1C)[C@@H](C)CCC(=O)[C@H](C)[C@@H](C/C=C/N(C)C=O)OC |  |  | IC50 (L1210): < 1 nM
20 | CCC(=O)O[C@H](CC)C[C@H](OC)[C@@H](C)CC[C@H](OC(=O)CC)[C@H](C)[C@H](OC)[C@H](C)/C=C/N(C)C=O |  | 17 | IC50 [8]: 5500 nM
21 | CCC(=O)O[C@@H](C[C@H](OC)[C@@H](C)CC[C@@H](OC(=O)C1CCCCC1)[C@H](C)[C@H](OC)[C@H](C)/C=C/N(C)C=O)C(C)C | 65 | 20 | 
22 | CCC(=O)O[C@@H](C[C@H](OC)[C@@H](C)CC[C@@H](OC(=O)C1CCCC1)[C@H](C)[C@H](OC)[C@H](C)/C=C/N(C)C=O)C(C)C | 53 | 39 | 
23 | CCC(=O)O[C@@H](C[C@H](OC)[C@@H](C)CC[C@@H](OC(=O)[C@H]1CCCO1)[C@H](C)[C@H](OC)[C@H](C)/C=C/N(C)C=O)C(C)C | 72 | 75 | logP [2]: 5.3
24 | CCC(=O)O[C@@H](C[C@H](OC)[C@@H](C)CC[C@@H](OC(=O)C(C)C)[C@H](C)[C@H](OC)[C@H](C)/C=C/N1CCCCC1=O)C(C)C | 18 | 14 | 
25 | CCC(=O)O[C@@H](C[C@H](OC)[C@@H](C)CC[C@@H](OC(=O)[C@H]1CCCN1C)[C@H](C)[C@H](OC)[C@H](C)/C=C/N(C)C=O)C(C)C | 45 | 25 | 
26 | CCC(=O)O[C@H](CC)C[C@H](OC)[C@@H](C)CC[C@@H](OC(=O)C(C)C)[C@H](C)[C@H](OC)[C@H](C)/C=C/N(C)C=O | 40 | 33 | 
27 | CCC(=O)O[C@@H](C[C@H](OC)[C@@H](C)CC[C@@H](OC(=O)C(C)C)[C@H](C)[C@H](OC)[C@H](C)/C=C/N(C=O)CC(F)(F)F)C(C)C | 81 | 53 | 
28 | CO[C@@H]1CC2=CC(=O)O[C@H](C2)[C@H](C)[C@H](OC)C[C@@H](OC)/C=C/[C@H](C)[C@@H](OC)C[C@@H](OC)/C=C/[C@H](C)[C@@H]([C@@H](C)[C@@H](OC)[C@@H](C)CCC(=O)[C@H](C)[C@@H](C/C=C/N(C)C=O)OC)OC(=O)/C=C/C=C(\C)C1 |  |  | IC50 (KB): 100 nM
